Where two headings read alike, the source gives them in different places.
Assays:
EGFR (d746-750 C797S) = target: T1, EGFR (d746-750 C797S) (Homo sapiens, UniProt P00533, C797S/DEL746-750); assay: Inhibition of EGFR (d746-750 C797S) biochemical enzymatic activity (HTRF); conditions: EGFR Del19-C797S, 1 mM ATP, 1 h, room temperature, read-out: IC50 (nM) @Del19-C797S
T1 construct: purchased signalchem
Method in brief: (§1)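 Kinase activity is measured by HTRF detection of biotinylated TK substrate (1 μM) phosphorylation at 1 mM ATP. Incubation lasts 1 h at room temperature before an EDTA stop, and IC50 is fitted with a four-parameter logistic model.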

EGFR L858R = target: T2, EGFR L858R (Homo sapiens, UniProt P00533, L858R); assay: Inhibition of EGFR L858R biochemical enzymatic activity (HTRF); conditions: 1 mM ATP, 1 h, room temperature, read-out: IC50 (nM) @L858R
T2 construct: purchased Carna Bio
Method in brief: as §1

[1] = target: T3, EGFR[T790M/C797S/d746-750] (Homo sapiens, UniProt P00533, C797S/DEL746-750/T790M); assay: Inhibition of EGFR[T790M/C797S/d746-750] biochemical enzymatic activity (HTRF); conditions: EGFR T790M-C797S-Del19, 1 mM ATP, 1 h, room temperature, read-out: IC50 (nM) @T790M - C797S - Del19
T3 construct: purchased Carna Bio
Method in brief: as §1

EGFR L858R/T790M = target: T4, EGFR L858R/T790M (Homo sapiens, UniProt P00533, L858R/T790M); assay: Inhibition of EGFR L858R/T790M biochemical enzymatic activity (HTRF); conditions: EGFR L858R-T790M, 1 mM ATP, 1 h, room temperature, read-out: IC50 (nM) @L858R-T790M
T4 construct: purchased Carna Bio
Method in brief: as §1

PC-9 = assay: Cell proliferation assay, PC-9 cells (CellTiter-Glo, 72 hours); format: cell-based; conditions: PC9 cells, CellTiter-Glo, read-out: PC9 GI50
Method in brief: (§2)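 Luminescent viable-cell counts were taken on a day 0 plate at dosing and again at endpoint. Proliferation was calculated as (sample − G0)/(DMSO − G0). Seeding was 5000 Ba/F3 or 500 PC-9 cells per well in RPMI1640, followed by overnight attachment and serial compound dilutions. The GI50 was fitted.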

EGFR[T790M/C797S/L858R] = target: T5, EGFR[T790M/C797S/L858R] (Homo sapiens, UniProt P00533, C797S/L858R/T790M); assay: Inhibition of EGFR[T790M/C797S/L858R] biochemical enzymatic activity (HTRF); conditions: EGFR T790M-C797S-L858R, 1 mM ATP, 1 h, room temperature, read-out: IC50 (nM) @T790M- C797S - L858R
T5 construct: purchased Carna Bio
Method in brief: as §1

EGFR wild type = target: T6, EGFR wild type (Homo sapiens, UniProt P00533); assay: Inhibition of EGFR wild type biochemical enzymatic activity (HTRF); conditions: EGFR WT, 1 mM ATP, 1 h, room temperature, read-out: IC50 (nM) @WT
T6 construct: purchased Carna Bio
Method in brief: as §1

EGFR (C797S L858R) = target: T7, EGFR (C797S L858R) (Homo sapiens, UniProt P00533, C797S/L858R); assay: Inhibition of EGFR (C797S L858R) biochemical enzymatic activity (HTRF); conditions: EGFR L858-C797S, 1 mM ATP, 1 h, room temperature, read-out: IC50 (nM) @L858-C797S
T7 construct: purchased signalchem
Method in brief: as §1

[2] = system: Ba/F3 cells expressing EGFR mutations; assay: Cell proliferation assay, Ba/F3 cells expressing EGFR mutations (CellTiter-Glo, 72 hours); format: cell-based; conditions: CellTiter-Glo
Method in brief: as §2

EGFR Exon19Del/T790M = target: T8, EGFR Exon19Del/T790M (Homo sapiens, UniProt P00533, DEL746-750/T790M); assay: Inhibition of EGFR Exon19Del/T790M biochemical enzymatic activity (HTRF); conditions: EGFR Del19-T790M, 1 mM ATP, 1 h, room temperature, read-out: IC50 (nM) @Del19-T790M
T8 construct: purchased Carna Bio
Method in brief: as §1

A-431 = assay: Cell proliferation GI50, A-431 cells (Table 6); format: cell-based
EGFR Exon19Del = target: T9, EGFR Exon19Del (Homo sapiens, UniProt P00533, DEL746-750); assay: Inhibition of EGFR Exon19Del biochemical enzymatic activity (HTRF); conditions: EGFR Del19, 1 mM ATP, 1 h, room temperature, read-out: IC50 @Del19
T9 construct: purchased Carna Bio
Method in brief: as §1

[3] = BaF3 cells, EGFR DEL19-C797S, read-out: DEL19-C797S/BaF3 GI50
[4] = BaF3 cells, EGFR DEL19-T790-C797S, read-out: DEL19-T790-C797S/BaF3 GI50
[5] = BaF3 cells, EGFR L858R, read-out: L858R/BaF3 GI50
[6] = BaF3 cells, EGFR L858R-C797S, read-out: L858R-C797S/BaF3 GI50
[7] = BaF3 cells, EGFR L858R-T790-C797S, read-out: L858R-T790-C797S/BaF3 GI50
[8] = BaF3 cells, EGFR L858R-T790M, read-out: L858R-T790M/BaF3 GI50
[9] = EGFR DEL19-T790M, read-out: DEL19-T790M GI50

T3 sequence (P00533 with tags, fused parts or gaps DEL746-750/T790M/C797S limits assumed): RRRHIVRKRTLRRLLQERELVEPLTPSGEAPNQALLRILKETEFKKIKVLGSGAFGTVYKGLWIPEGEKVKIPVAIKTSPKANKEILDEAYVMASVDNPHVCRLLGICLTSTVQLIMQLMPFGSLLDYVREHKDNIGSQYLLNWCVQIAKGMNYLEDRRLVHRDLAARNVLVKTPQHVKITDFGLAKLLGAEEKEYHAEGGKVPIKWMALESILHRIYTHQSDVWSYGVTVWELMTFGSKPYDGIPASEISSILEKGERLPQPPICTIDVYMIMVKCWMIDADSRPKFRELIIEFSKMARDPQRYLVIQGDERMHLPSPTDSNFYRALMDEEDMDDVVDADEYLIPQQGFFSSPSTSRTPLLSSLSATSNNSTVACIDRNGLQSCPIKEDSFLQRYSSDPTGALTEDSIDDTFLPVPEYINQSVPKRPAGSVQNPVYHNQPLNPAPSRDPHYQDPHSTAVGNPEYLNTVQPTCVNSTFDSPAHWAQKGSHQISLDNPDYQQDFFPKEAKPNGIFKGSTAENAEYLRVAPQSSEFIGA
T6 sequence (P00533 25-1210): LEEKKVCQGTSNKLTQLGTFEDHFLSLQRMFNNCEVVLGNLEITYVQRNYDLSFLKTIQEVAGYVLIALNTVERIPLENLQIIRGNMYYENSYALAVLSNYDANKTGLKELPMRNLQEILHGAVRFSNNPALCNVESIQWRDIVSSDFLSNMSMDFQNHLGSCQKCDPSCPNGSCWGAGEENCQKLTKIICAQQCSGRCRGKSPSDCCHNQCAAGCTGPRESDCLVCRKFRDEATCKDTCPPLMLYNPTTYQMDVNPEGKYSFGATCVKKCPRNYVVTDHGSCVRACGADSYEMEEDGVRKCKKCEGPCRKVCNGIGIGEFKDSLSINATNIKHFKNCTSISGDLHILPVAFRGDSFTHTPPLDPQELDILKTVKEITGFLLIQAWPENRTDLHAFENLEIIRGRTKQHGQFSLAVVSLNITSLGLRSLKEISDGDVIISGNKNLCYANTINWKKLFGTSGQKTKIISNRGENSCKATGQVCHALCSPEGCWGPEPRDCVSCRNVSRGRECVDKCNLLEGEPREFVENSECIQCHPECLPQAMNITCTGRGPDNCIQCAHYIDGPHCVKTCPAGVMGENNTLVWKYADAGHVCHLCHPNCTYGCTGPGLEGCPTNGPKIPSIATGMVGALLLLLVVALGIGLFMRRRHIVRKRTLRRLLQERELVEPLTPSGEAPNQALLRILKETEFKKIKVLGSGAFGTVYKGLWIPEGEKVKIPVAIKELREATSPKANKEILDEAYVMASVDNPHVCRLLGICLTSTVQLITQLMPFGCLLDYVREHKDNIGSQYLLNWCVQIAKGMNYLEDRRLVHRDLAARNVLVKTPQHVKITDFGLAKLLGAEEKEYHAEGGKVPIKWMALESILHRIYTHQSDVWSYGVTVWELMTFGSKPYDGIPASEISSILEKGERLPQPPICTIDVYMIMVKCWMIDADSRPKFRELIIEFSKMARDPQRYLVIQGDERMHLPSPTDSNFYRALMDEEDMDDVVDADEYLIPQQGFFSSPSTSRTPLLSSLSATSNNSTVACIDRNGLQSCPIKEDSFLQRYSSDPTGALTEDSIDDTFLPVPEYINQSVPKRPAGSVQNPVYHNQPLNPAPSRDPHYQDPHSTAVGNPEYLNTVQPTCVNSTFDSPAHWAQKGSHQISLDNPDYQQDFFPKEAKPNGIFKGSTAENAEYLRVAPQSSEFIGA
T2 sequence (P00533 25-1210 L858R): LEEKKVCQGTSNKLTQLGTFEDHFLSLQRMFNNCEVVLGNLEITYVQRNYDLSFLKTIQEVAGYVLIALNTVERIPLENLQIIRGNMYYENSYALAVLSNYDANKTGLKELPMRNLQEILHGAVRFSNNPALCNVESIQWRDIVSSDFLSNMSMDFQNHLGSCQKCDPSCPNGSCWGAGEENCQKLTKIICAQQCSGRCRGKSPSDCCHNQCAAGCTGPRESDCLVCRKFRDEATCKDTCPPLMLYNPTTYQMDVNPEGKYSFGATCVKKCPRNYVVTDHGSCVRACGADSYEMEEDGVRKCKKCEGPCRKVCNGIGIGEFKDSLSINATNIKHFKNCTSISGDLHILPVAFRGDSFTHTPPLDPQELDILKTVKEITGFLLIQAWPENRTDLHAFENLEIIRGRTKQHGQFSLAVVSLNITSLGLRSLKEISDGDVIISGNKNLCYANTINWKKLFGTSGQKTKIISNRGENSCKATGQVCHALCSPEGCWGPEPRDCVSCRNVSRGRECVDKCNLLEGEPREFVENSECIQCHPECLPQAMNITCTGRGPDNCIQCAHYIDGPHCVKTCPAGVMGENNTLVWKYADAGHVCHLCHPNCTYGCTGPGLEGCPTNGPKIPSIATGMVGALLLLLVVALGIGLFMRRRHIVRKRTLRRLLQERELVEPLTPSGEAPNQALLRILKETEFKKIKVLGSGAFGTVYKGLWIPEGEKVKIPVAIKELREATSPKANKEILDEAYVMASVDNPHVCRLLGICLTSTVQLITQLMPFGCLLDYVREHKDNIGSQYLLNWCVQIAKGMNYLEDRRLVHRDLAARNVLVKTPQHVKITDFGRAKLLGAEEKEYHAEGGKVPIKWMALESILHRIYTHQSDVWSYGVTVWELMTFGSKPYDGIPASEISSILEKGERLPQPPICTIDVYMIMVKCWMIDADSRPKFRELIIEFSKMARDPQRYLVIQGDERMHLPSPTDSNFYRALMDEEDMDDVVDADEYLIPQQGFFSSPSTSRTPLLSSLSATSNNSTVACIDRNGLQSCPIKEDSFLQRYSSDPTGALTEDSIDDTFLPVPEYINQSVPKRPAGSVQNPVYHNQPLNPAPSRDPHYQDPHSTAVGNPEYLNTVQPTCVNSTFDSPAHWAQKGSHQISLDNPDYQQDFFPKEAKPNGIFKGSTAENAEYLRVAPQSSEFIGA
T4 sequence (P00533 25-1210 T790M/L858R): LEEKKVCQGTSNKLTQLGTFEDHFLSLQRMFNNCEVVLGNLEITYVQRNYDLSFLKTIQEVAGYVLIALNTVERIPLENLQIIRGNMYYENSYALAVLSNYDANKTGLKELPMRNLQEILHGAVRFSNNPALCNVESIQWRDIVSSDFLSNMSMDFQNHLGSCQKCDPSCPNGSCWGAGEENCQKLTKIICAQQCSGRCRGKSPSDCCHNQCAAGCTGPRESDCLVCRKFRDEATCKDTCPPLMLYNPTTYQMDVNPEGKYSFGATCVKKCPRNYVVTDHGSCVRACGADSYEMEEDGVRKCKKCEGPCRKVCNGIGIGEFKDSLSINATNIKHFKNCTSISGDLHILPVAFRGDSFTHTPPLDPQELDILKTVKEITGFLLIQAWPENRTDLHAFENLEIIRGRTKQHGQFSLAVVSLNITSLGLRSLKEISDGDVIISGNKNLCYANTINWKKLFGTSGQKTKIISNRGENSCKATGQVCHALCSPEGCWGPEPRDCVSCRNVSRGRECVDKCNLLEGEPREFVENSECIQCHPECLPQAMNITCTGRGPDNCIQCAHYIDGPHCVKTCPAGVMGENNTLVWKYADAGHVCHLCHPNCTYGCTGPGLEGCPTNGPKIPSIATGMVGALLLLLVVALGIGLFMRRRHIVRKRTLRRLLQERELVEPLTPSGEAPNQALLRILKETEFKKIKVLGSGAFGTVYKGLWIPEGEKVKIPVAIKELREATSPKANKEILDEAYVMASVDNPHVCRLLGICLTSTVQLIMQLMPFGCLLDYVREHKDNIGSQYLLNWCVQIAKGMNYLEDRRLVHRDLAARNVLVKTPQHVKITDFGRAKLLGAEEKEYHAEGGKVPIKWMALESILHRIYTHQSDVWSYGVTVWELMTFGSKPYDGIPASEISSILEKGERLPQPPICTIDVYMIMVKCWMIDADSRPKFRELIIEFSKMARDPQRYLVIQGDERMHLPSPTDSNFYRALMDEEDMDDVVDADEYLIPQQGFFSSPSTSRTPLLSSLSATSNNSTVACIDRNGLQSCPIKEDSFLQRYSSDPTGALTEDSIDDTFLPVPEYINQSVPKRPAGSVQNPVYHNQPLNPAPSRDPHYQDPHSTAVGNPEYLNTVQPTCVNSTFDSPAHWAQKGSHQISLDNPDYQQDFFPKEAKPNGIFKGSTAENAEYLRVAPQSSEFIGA
T1 sequence (P00533 with tags, fused parts or gaps DEL746-750/C797S limits assumed): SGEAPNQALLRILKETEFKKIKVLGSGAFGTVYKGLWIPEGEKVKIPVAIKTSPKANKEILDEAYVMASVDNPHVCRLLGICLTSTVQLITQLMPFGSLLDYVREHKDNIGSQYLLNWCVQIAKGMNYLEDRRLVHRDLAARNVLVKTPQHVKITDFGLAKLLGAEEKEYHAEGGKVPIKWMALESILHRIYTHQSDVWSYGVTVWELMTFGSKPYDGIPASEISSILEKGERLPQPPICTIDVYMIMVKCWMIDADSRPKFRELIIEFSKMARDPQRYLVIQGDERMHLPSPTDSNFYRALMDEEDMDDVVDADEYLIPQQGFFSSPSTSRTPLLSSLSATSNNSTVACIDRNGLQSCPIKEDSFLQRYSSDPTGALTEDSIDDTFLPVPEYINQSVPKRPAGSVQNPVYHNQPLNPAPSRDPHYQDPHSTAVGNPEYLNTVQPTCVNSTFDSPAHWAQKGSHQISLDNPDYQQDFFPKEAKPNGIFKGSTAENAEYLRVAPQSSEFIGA

SMILES | IC50 (EGFR (d746-750 C797S)) [nM] | IC50 (EGFR L858R) [nM] | IC50 [1] [nM] | IC50 (EGFR L858R/T790M) [nM] | GI50 (PC-9) [nM] | IC50 (EGFR[T790M/C797S/L858R]) [nM] | IC50 (EGFR wild type) [nM] | IC50 (EGFR (C797S L858R)) [nM] | GI50 [2, 3] [nM] | GI50 [2, 4] [nM] | GI50 [2, 5] [nM] | GI50 [2, 6] [nM] | GI50 [2, 7] [nM] | GI50 [2, 8] [nM] | GI50 [2, 9] [nM] | IC50 (EGFR Exon19Del/T790M) [nM] | GI50 (A-431; A-431 cells) [nM] | IC50 (EGFR Exon19Del) [nM] | GI50 (A-431; Homo sapiens, A-431, A-431 cells) [nM]
COCCN(C)c1ccc2nc3n(c2c1)C12CCC(CN(CCOc4c(cnn4C)-c4cc(cn(C)c4=O)C(=O)N3)C1)C2 (single isomer, unassigned) [Example A90B] | 3.5 | 54 | 4.9 | 10 | 46 | 9.3 | 825 | 31 | 0.75 | 3.9 | 4.6 | 8 | 15 | 14 | 3.2 | 5.9 | 3160 | 6.3 | –
CN1CCC2(CN(c3ccc4nc5n(c4c3)C34CCC(CN(CCOc6c(cnn6C)-c6cc(cn(C)c6=O)C(=O)N5)C3)C4)C2)C(F)(F)C1 (single isomer, unassigned) [Example A91A] | 1650 | 3720 | > 5000 | > 5000 | 1300 | > 5000 | > 5000 | > 5000 | 74 | 146 | 324 | 303 | 366 | 884 | 231 | > 5000 | – | 740 | 1180
CN1CCC2(CN(c3ccc4nc5n(c4c3)C34CCC(CN(CCOc6c(cnn6C)-c6cc(cn(C)c6=O)C(=O)N5)C3)C4)C2)C(F)(F)C1 (single isomer, unassigned) [Example A91B] | 2.9 | 11 | 6.7 | 12 | 25 | 6.1 | 110 | 8 | 0.75 | 2.2 | 2.6 | 3.9 | 4.6 | 11 | 3.1 | 9.7 | 1690 | 4 | –
CN1CC2(C1)CN(c1ccc3nc4n(c3c1)C13CCC(CN(CCOc5c(cnn5C)-c5cc(cn(C)c5=O)C(=O)N4)C1)C3)C2 (single isomer, unassigned) [Example A92A] | 449 | 1150 | 3960 | > 5000 | 522 | > 5000 | > 5000 | 2790 | 102 | 112 | 113 | 122 | 152 | 310 | 80 | > 5000 | 2100 | 573 | –
CN1CC2(C1)CN(c1ccc3nc4n(c3c1)C13CCC(CN(CCOc5c(cnn5C)-c5cc(cn(C)c5=O)C(=O)N4)C1)C3)C2 (single isomer, unassigned) [Example A92B] | 1 | 3.2 | 2.3 | 2.3 | 9.8 | 2.2 | 16 | 2.6 | 0.5 | 1.1 | 0.82 | 1.6 | 0.94 | 3 | 1.2 | 2.6 | 842 | 1.5 | –
Cn1ncc2c1OCCN1CC3CCC(C3)(C1)n1c(nc3ccc(N4CCC(N5CC(F)C5)C4)cc31)NC(=O)c1cc-2c(=O)n(C)c1 (single isomer, unassigned) [Example A94A, 5-[3-(3-Fluoroazetidin-1-yl)pyrrolidin-1-yl]-15,21-dimethyl-23-oxa-2,9,11,15,20,21,26-heptaazaheptacyclo[24.4.1.1^{1,28}.1^{13,17}.0^{2,10}.0^{3,8}.0^{18,22}]tritriaconta-3,5,7,9,13,17(33),18(22),19-octaene-12,16-dione] | 1560 | 4740 | > 5000 | > 5000 | 981 | > 5000 | > 5000 | > 5000 | 114 | 254 | 323 | 284 | 539 | 944 | 209 | > 5000 | 1660 | 830 | –
Cn1ncc2c1OCCN1CC3CCC(C3)(C1)n1c(nc3ccc(N4CCC(N5CC(F)C5)C4)cc31)NC(=O)c1cc-2c(=O)n(C)c1 (single isomer, unassigned) [Example A94B1, 5-[3-(3-Fluoroazetidin-1-yl)pyrrolidin-1-yl]-15,21-dimethyl-23-oxa-2,9,11,15,20,21,26-heptaazaheptacyclo[24.4.1.1^{1,28}.1^{13,17}.0^{2,10}.0^{3,8}.0^{18,22}]tritriaconta-3,5,7,9,13,17(33),18(22),19-octaene-12,16-dione] | 3.7 | 27 | 5 | 8.8 | 16 | 5 | 148 | 15 | 0.73 | 6.5 | 2 | 6 | 3.9 | 12 | 3 | 7.1 | 1110 | 10 | –
